Test results reported in ChEMBL document CHEMBL1141887, “Design and synthesis of (E)-1,1,2-triarylethenes: novel inhibitors of the cyclooxygenase-2 (COX-2) isozyme” (Bioorg Med Chem Lett, 2005).

biological target: T1, Prostaglandin G/H synthase 1 (Ovis aries, UniProt P05979); assay: In vitro inhibitory concentration against ovine Cyclooxygenase-1
T1 sequence (P05979 whole entry): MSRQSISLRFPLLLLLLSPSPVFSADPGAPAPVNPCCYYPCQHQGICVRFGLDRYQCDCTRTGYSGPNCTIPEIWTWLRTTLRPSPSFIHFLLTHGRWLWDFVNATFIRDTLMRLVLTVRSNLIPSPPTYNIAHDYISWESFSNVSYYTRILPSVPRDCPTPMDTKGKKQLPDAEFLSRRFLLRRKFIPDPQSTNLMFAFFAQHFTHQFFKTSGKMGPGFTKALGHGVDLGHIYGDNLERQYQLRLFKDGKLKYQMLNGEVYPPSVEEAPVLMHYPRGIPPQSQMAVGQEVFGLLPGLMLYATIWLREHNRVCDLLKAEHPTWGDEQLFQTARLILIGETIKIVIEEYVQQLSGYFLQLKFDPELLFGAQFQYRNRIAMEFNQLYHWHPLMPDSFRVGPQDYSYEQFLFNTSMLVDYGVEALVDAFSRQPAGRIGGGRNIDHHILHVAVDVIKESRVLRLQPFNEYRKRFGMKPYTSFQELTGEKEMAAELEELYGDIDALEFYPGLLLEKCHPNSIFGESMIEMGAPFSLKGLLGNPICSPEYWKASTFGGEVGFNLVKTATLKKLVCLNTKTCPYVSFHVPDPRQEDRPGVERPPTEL

First: CS(=O)(=O)c1ccc(/C(=C/c2ccccc2)c2ccccc2)cc1
Second: Cc1ccc(/C=C(\c2ccccc2)c2ccc(S(C)(=O)=O)cc2)cc1
The IC50 of the first is lower: 0.14 µM for the first, greater than 100 µM for the second. The first is the more potent here.

`Cc1ccc(C(=Cc2ccc(S(C)(=O)=O)cc2)c2ccc(C)cc2)cc1` and `CS(=O)(=O)c1ccc(C=C(c2ccc(F)cc2)c2ccc(F)cc2)cc1` cannot be ordered by IC50: greater than 100 µM for the first, greater than 100 µM for the second.

`CS(=O)(=O)c1ccc(/C(=C/c2ccc(Cl)cc2)c2ccccc2)cc1` and `CS(=O)(=O)c1ccc(/C(=C/c2ccc(F)cc2)c2ccccc2)cc1` cannot be ordered by IC50: greater than 100 µM for the first, greater than 100 µM for the second.

`CS(=O)(=O)c1ccc(C=C(c2ccc(Cl)cc2)c2ccc(Cl)cc2)cc1` and `CS(=O)(=O)c1ccc(/C(=C/c2ccc(F)c(F)c2)c2ccccc2)cc1` cannot be ordered by IC50: greater than 100 µM for the first, greater than 100 µM for the second.
